The values that follow come from ChEMBL document CHEMBL1141564, “Meriolins (3-(pyrimidin-4-yl)-7-azaindoles): synthesis, kinase inhibitory activity, cellular effects, and structure of a CDK2/cyclin A/meriolin complex” (J Med Chem, 2008).

The nature of experiment [1]: Inhibition of starfish oocyte CDK1/cyclin B. Details: species or system Marthasterias glacialis.
The target of experiment [2] is Cyclin-dependent kinase 5/CDK5 activator 1 (Homo sapiens, UniProt Q00535). In words: Inhibition of recombinant GST-CDK5/p25 expressed in Escherichia coli.
Another experiment concerns GBM. In words: cells. To be noted: Homo sapiens, 48 h.
In a further experiment the test system is HEK293. In words: cells. The note with it: Homo sapiens, HEK293, 48 h.
Another experiment deals with CDK9/cyclin T1 (Homo sapiens, UniProt P50750). In words: Inhibition of human recombinant CDK9/cyclin T expressed in insect cells.
Another experiment relates to LS174T. In words: cells. To be noted: Homo sapiens, 48 h.
Experiment [3] can be described thus: Inhibition of pig CK1delta/CK1epsilon. On the set-up: species or system Sus scrofa.
Experiment [4] is described as follows: Inhibition of pig GSK-3-alpha/GSK-3beta. Details: species or system Sus scrofa.
The test system of a further experiment is KMS-11. Briefly: cells. To be noted: Homo sapiens, KMS-11, 48 h.
Experiment [5] concerns the target Cyclin-dependent kinase 2/cyclin A (Homo sapiens, UniProt P24941). In words: Inhibition of human recombinant CDK2/cyclin A expressed in insect cells.
The test system of another experiment is SH-SY5Y. In words: cells. The note with it: Homo sapiens, 48 h.
Experiment [6] has as its system HCT-116. In words: Antiproliferative activity against human HCT116 cells assessed as reduction in diameter of spheroids at 1 uM after 5 days. It counts as functional.
Experiment [7] deals with HCT-116. Briefly: Antiproliferative activity against human HCT116 cells after 5 days. The class given is functional, cell-based. To be noted: HCT-116, 120 h.
Experiment [8] addresses Dual specificity tyrosine-phosphorylation-regulated kinase 1A (Rattus norvegicus, UniProt Q63470). Briefly: Inhibition of rat recombinant GST-DYRK1A expressed in Escherichia coli.

As a reminder, the IC50 is the concentration needed to halve the response being measured.

Sequence of Cyclin-dependent kinase 5/CDK5 activator 1 (Q00535 whole entry): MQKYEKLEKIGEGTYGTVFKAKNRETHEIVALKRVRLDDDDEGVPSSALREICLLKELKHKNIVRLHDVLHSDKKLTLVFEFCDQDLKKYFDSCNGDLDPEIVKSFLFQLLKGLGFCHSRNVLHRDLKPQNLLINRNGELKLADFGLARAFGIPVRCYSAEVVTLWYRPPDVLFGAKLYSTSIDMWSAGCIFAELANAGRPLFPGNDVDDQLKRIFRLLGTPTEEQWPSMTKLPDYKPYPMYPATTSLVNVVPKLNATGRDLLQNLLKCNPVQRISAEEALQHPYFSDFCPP
Sequence of Cyclin-dependent kinase 5/CDK5 activator 1 (Q15078 whole entry, further chain): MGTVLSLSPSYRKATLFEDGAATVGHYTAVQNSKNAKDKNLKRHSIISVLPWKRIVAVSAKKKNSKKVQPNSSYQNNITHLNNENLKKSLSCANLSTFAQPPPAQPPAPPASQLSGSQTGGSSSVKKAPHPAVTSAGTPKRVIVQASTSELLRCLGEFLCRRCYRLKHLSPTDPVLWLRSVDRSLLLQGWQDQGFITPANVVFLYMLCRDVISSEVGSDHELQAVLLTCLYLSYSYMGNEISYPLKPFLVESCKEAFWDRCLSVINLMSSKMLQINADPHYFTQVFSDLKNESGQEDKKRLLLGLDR
Sequence of CDK9/cyclin T1 (O60563 whole entry): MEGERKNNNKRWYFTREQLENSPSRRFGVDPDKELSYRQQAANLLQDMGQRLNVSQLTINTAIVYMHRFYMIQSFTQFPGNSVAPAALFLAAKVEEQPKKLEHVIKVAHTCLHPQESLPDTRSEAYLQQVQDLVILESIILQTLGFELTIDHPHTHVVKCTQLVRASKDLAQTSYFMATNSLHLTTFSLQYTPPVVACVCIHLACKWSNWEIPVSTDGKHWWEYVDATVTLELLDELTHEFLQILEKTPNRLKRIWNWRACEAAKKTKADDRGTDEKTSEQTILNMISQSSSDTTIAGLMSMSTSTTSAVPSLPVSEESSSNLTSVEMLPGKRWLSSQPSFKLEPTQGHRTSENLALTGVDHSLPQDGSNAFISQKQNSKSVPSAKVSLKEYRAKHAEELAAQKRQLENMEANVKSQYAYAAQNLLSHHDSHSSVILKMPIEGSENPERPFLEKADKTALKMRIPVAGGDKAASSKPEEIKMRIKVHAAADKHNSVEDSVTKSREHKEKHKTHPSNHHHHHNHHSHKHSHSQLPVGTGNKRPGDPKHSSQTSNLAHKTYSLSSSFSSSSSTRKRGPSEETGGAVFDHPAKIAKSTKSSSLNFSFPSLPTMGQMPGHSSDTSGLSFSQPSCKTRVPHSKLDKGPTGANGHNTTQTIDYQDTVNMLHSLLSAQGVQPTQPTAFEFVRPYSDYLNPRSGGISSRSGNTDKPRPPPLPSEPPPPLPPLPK
Sequence of CDK9/cyclin T1 (P50750 whole entry): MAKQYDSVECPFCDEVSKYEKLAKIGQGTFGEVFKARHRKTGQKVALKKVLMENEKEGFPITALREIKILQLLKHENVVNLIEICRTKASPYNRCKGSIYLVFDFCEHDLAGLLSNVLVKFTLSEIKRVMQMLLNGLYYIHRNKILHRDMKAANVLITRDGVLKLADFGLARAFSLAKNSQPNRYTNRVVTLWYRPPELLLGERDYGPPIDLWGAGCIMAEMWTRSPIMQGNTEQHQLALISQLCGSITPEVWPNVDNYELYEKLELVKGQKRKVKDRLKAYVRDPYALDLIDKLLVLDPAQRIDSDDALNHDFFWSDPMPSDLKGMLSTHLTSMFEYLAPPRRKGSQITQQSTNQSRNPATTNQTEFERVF
Description for GBM: Survival of human GBM cells after 48 hrs by neutral red reduction assay
Description for HEK293: Survival of human HEK293 cells after 48 hrs by MTS reduction assay
Description for KMS-11: Survival of human KMS11 cells after 48 hrs by neutral red reduction assay
Description for LS174T: Survival of human LS174T cells after 48 hrs by MTS reduction assay
Description for SH-SY5Y: Survival of human SHSY5Y cells after 48 hrs by MTS reduction assay

In the case of `COc1ccnc2c1c(-c1ccnc(N)n1)cn2C` [MERIOLIN 9], the IC50 in experiment [1] was 25000 nM; in experiment [2] it was 73000 nM.
With `CC(C)Oc1ccnc2[nH]cc(-c3ccnc(N)n3)c12` [MERIOLIN 6], the IC50 in experiment [1] came to 8 nM; in the experiment with GBM, 80 nM; in the experiment on HEK293, 89 nM; on CDK9/cyclin T1, 5.6 nM; in experiment [2], 3 nM; in the experiment with LS174T, 60 nM. In addition, the figures for the 50% inhibitory concentration (IC50) in [3] and in [4] were 140 nM and 21 nM, respectively.
For `Nc1nccc(-c2c[nH]c3nccc(O)c23)n1` [MERIOLIN 2], the IC50 in the experiment on KMS-11 turned out to be 600 nM; in experiment [1] it was 57 nM; with GBM it was 1210 nM; in the experiment with HEK293, 960 nM; at CDK9/cyclin T1 it was 18 nM; in experiment [2], 50 nM. The IC50 worked out at 1060 nM in the experiment with LS174T, 18 nM in experiment [5], 410 nM with SH-SY5Y and 400 nM in [4].
In the case of `COc1ccnc2[nH]cc(-c3ccnc(N)n3)c12` [MERIOLIN 3], the IC50 in the experiment with KMS-11 worked out at 120 nM; in experiment [1], 170 nM; in the experiment with GBM, 140 nM; in the experiment on HEK293, 240 nM; on CDK9/cyclin T1, 6 nM; in experiment [2], 170 nM. The half-maximal inhibitory concentration (IC50) in the experiment on LS174T was 130 nM; in experiment [5], 11 nM; in experiment [3] it was 200 nM; with SH-SY5Y it was 73 nM; with HCT-116 [7], 63 nM; in experiment [4] it was 230 nM. Further, the Activity in the experiment with HCT-116 [6] is 720 um.
For `Oc1ccnc2[nH]cc(-c3ccncn3)c12`, the IC50 was above 15000 nM in the experiment with KMS-11; above 20000 nM with GBM; 84000 nM in the experiment with HEK293; 250 nM on CDK9/cyclin T1; 700 nM in experiment [2]; 23500 nM in the experiment with LS174T. The IC50 in experiment [5] came to 700 nM; in the experiment on SH-SY5Y, 28000 nM; in experiment [4], 1800 nM.
For the compound `Cn1cc(-c2ccnc(N)n2)c2c(O)ccnc21` [MERIOLIN 8], the IC50 with KMS-11 is above 20000 nM; in the experiment with GBM, above 20000 nM; with HEK293, above 30000 nM; at CDK9/cyclin T1, 1200 nM; in experiment [2], 5500 nM; with LS174T, above 30000 nM. Further, the half-maximal inhibitory concentration (IC50) in experiment [5] is 1800 nM; in experiment [3] it was 2300 nM; in the experiment on SH-SY5Y it was above 30000 nM; in experiment [4], 4600 nM.
As to `Nc1nccc(-c2c[nH]c3ncccc23)n1` [MERIOLIN 1], the IC50 came out at 1270 nM with KMS-11; 1380 nM in the experiment with GBM; 2200 nM in the experiment on HEK293; 26 nM at CDK9/cyclin T1; 510 nM in experiment [2]; 1500 nM with LS174T. The compound also came in with an IC50 in the experiment with SH-SY5Y of 670 nM.
As for `CCCOc1ccnc2[nH]cc(-c3ccnc(N)n3)c12` [MERIOLIN 5], the IC50 with KMS-11 stood at 40 nM; in experiment [1] it was 7 nM; in the experiment with GBM, 80 nM; in the experiment with HEK293, 85 nM; at CDK9/cyclin T1, 5.6 nM; in experiment [2] it was 3 nM. For the same compound, the half-maximal inhibitory concentration (IC50) amounted to 47 nM in the experiment with LS174T; 3 nM in experiment [5]; 200 nM in experiment [3]; 26 nM in the experiment on SH-SY5Y; 25 nM in [4].
Consider `Nc1nccc(-c2c[nH]c3nc(Br)ccc23)n1`, for which the 50% inhibitory concentration (IC50) is above 15000 nM in the experiment with KMS-11; 2200 nM in experiment [1]; above 20000 nM in the experiment with GBM; above 100000 nM in the experiment with HEK293; 1000 nM on CDK9/cyclin T1; 300 nM in experiment [8]. Further, the IC50 in experiment [2] was 680 nM; in the experiment with LS174T it was above 30000 nM; in [5], 1300 nM; in the experiment on SH-SY5Y, 43000 nM; in experiment [4] it was 30000 nM.
For the compound `COc1ccnc2[nH]cc(-c3ccnc(SC)n3)c12`, the IC50 with KMS-11 is above 20000 nM; in experiment [1], 1800 nM; in the experiment on GBM, above 20000 nM; in the experiment on HEK293 it was 66000 nM; at CDK9/cyclin T1, 1100 nM; in experiment [2], 2300 nM. Also, the IC50 with LS174T was above 30000 nM; in experiment [5], 2100 nM; in experiment [3], 600 nM; in the experiment with SH-SY5Y, above 100000 nM; in experiment [4], 7000 nM.
Consider `COCCOc1ccnc2[nH]cc(-c3ccnc(N)n3)c12` [MERIOLIN 7], for which the IC50 in the experiment on KMS-11 was above 20000 nM; in experiment [1], 35000 nM; in the experiment on GBM, above 20000 nM; with HEK293, above 100000 nM; at CDK9/cyclin T1, 5300 nM; in experiment [8], above 10000 nM. Further, the concentration for half-maximal inhibition (IC50) in experiment [2] was 14000 nM; with LS174T, above 30000 nM; in experiment [5] it was above 10000 nM; in experiment [3], 100000 nM; in the experiment with SH-SY5Y it was above 100000 nM; in [4], 63000 nM.
Turning to `CCOc1ccnc2[nH]cc(-c3ccnc(N)n3)c12` [MERIOLIN 4], the IC50 stood at 60 nM in the experiment with KMS-11; 10 nM in experiment [1]; 130 nM with GBM; 220 nM with HEK293; 7 nM at CDK9/cyclin T1; 5 nM in [2]. For the same compound, the 50% inhibitory concentration (IC50) came to 100 nM in the experiment with LS174T; 7 nM in experiment [5]; 100 nM in experiment [3]; 81 nM in the experiment with SH-SY5Y; 30 nM in experiment [4].
As for `Nc1nccc(-c2c[nH]c3nccc(Cl)c23)n1`, the IC50 came to 7500 nM in the experiment on KMS-11; 240 nM in experiment [1]; 10000 nM in the experiment with GBM; 10800 nM in the experiment with HEK293; 50 nM at CDK9/cyclin T1; 230 nM in [2]. Also, the 50% inhibitory concentration (IC50) is above 10000 nM in the experiment with LS174T; 60 nM in experiment [5]; 3000 nM in experiment [3]; 1920 nM with SH-SY5Y; 2000 nM in experiment [4].
Take `COc1ccnc2[nH]cc(-c3ccncn3)c12`: the IC50 with KMS-11 came out at 10000 nM; in the experiment with GBM, 10000 nM; with HEK293, 35500 nM; at CDK9/cyclin T1, 220 nM; in experiment [2] it was 1300 nM; with LS174T, 10000 nM. Moreover, the IC50 in experiment [5] was determined as 800 nM; in experiment [3] it was 600 nM; with SH-SY5Y it was 10200 nM; in experiment [4], 1100 nM.
